Experimental data reported in US20100317528A1, “HERBICIDE CONTAINING BENZOYLPYRAZOLE COMPOUND” (ISHIHARA SANGYO KAISHA, LTD., priority 2006, published 2010).

Assays:
Assay type in all cases: in vivo
[1] = tested on: crabgrass (Digitaria sanguinalis L.); test: Test Example 1: foliar treatment, upland pot test, crabgrass; settings: Digitaria sanguinalis, read-out: Growth inhibition rate (%) Crabgrass; for inhibition at 31 g/ha: 31 g/ha active ingredient, observed 17th to 25th day after application
[2] = tested on: green foxtail (Setaria viridis L.); test: Test Example 1: foliar treatment, upland pot test, green foxtail; settings: Setaria viridis, read-out: Growth inhibition rate (%) Green foxtail; for inhibition at 31 g/ha: 31 g/ha active ingredient, observed 17th to 25th day after application
[3] = tested on: soybean (Glycine max Merr.); test: Test Example 1: foliar treatment, upland pot test, soybean; settings: Glycine max, read-out: Growth inhibition rate (%) Soybean; for inhibition at 31 g/ha: 31 g/ha active ingredient, observed 17th to 25th day after application
[4] = tested on: barnyardgrass (Echinochloa crus-galli L.); test: Test Example 2: soil application on the day after sowing, barnyardgrass; settings: Echinochloa crus-galli, read-out: Growth inhibition rate (%) Barnyardgrass; for inhibition at 250 g/ha: 250 g/ha active ingredient, observed 19th to 28th day after application
Outline: (§1)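 Visual growth inhibition rate (%), judged 19 to 28 days post-treatment against non-treated plants (0) and complete kill (100), is reported. Treatment was a small-sprayer soil application one day after sowing, with the formulated compound diluted in water at 500 liter per hectare.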

[5] = tested on: redroot pigweed (Amaranthus retroflexus L.); test: Test Example 1: foliar treatment, upland pot test, redroot pigweed; settings: Amaranthus retroflexus, read-out: Growth inhibition rate (%) Redroot pigweed; for inhibition at 31 g/ha: 31 g/ha active ingredient, observed 17th to 25th day after application
Outline: (§2)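 Upland soil pots, sown; foliar spray at pigweed cotyledon–2.0 leaf, velvetleaf 0.1–1.5 leaf, rice 1.0–3.0 leaf, wheat 1.7–3.4 leaf. WP/EC formulations, prescribed a.i. rate, 500 L/ha spray volume + 0.1 vol % spreader. Visual % inhibition, d17–25.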

[6] = tested on: soybean (Glycine max Merr.); test: Test Example 2: soil application on the day after sowing, soybean; settings: Glycine max, read-out: Growth inhibition rate (%) Soybean; for inhibition at 250 g/ha: 250 g/ha active ingredient, observed 19th to 28th day after application
Outline: as §1

[7] = tested on: prickly sida (Sida spinosa L.); test: Test Example 1: foliar treatment, upland pot test, prickly sida; settings: Sida spinosa, read-out: Growth inhibition rate (%) Prickly sida; for inhibition at 31 g/ha: 31 g/ha active ingredient, observed 17th to 25th day after application
[8] = tested on: redroot pigweed (Amaranthus retroflexus L.); test: Test Example 2: soil application on the day after sowing, redroot pigweed; settings: Amaranthus retroflexus, read-out: Growth inhibition rate (%) Redroot pigweed; for inhibition at 250 g/ha: 250 g/ha active ingredient, observed 19th to 28th day after application
Outline: as §1

[9] = tested on: velvetleaf (Abutilon theophrasti MEDIC.); test: Test Example 2: soil application on the day after sowing, velvetleaf; settings: Abutilon theophrasti, read-out: Growth inhibition rate (%) Velvetleaf; for inhibition at 250 g/ha: 250 g/ha active ingredient, observed 19th to 28th day after application
Outline: as §1

[10] = tested on: prickly sida (Sida spinosa L.); test: Test Example 2: soil application on the day after sowing, prickly sida; settings: Sida spinosa, read-out: Growth inhibition rate (%) Prickly sida; for inhibition at 250 g/ha: 250 g/ha active ingredient, observed 19th to 28th day after application
Outline: as §1

[11] = tested on: corn (Zea mays L.); test: Test Example 1: foliar treatment, upland pot test, corn; settings: Zea mays, read-out: Growth inhibition rate (%) Corn; for inhibition at 31 g/ha: 31 g/ha active ingredient, observed 17th to 25th day after application
[12] = tested on: velvetleaf (Abutilon theophrasti MEDIC.); test: Test Example 1: foliar treatment, upland pot test, velvetleaf; settings: Abutilon theophrasti, read-out: Growth inhibition rate (%) Velvetleaf; for inhibition at 31 g/ha: 31 g/ha active ingredient, observed 17th to 25th day after application
Outline: as §2

[13] = tested on: wheat (Triticum spp.); test: Test Example 2: soil application on the day after sowing, wheat; settings: Triticum, read-out: Growth inhibition rate (%) Wheat; for inhibition at 250 g/ha: 250 g/ha active ingredient, observed 19th to 28th day after application
Description: Upland field soil was put into a 1/170,000 hectare pot, and seeds of various plants barnyardgrass (Echinochloa crus-galli L.), crabgrass (Digitaria sanquinalis L.), green foxtail (Setaria viridis L.), redroot pigweed (Amaranthus retroflexus L.), prickly sida (Sida spinosa L.), velvetleaf (Abutilon theophrasti MEDIC.), rice (Oryza sativa L.), wheat (Triticum spp.), corn (Zea mays L.) and soybean (Glycine max Merr.)) were sown. On the day after sowing, wettable powders or emulsifiable concentrates of the compounds of the above formula (I) prepared in accordance with a conventional preparation method, were weighed so that the active ingredients became the prescribed amounts, and diluted with water in an amount corresponding to 500 liter per 1 hectare, followed by soil application with a small sprayer.
On the 19th to 28th day after the application, the state of growth of the respective plants was visually observed, and the herbicidal effect was evaluated by a growth inhibition rate (%) of from 0 (equivalent to the non-treated area) to 100% (complete kill).

[14] = tested on: green foxtail (Setaria viridis L.); test: Test Example 2: soil application on the day after sowing, green foxtail; settings: Setaria viridis, read-out: Growth inhibition rate (%) Green foxtail; for inhibition at 250 g/ha: 250 g/ha active ingredient, observed 19th to 28th day after application
Outline: as §1

[15] = tested on: rice (Oryza sativa L.); test: Test Example 1: foliar treatment, upland pot test, rice; settings: Oryza sativa, read-out: Growth inhibition rate (%) Rice; for inhibition at 31 g/ha: 31 g/ha active ingredient, observed 17th to 25th day after application
Outline: as §2

[16] = tested on: barnyardgrass (Echinochloa crus-galli L.); test: Test Example 1: foliar treatment, upland pot test, barnyardgrass; settings: Echinochloa crus-galli, read-out: Growth inhibition rate (%) Barnyardgrass; for inhibition at 31 g/ha: 31 g/ha active ingredient, observed 17th to 25th day after application
[17] = tested on: rice (Oryza sativa L.); test: Test Example 2: soil application on the day after sowing, rice; settings: Oryza sativa, read-out: Growth inhibition rate (%) Rice; for inhibition at 250 g/ha: 250 g/ha active ingredient, observed 19th to 28th day after application
Outline: as §1

[18] = tested on: corn (Zea mays L.); test: Test Example 2: soil application on the day after sowing, corn; settings: Zea mays, read-out: Growth inhibition rate (%) Corn; for inhibition at 250 g/ha: 250 g/ha active ingredient, observed 19th to 28th day after application
Outline: as §1

[19] = tested on: crabgrass (Digitaria sanquinalis L.); test: Test Example 2: soil application on the day after sowing, crabgrass; settings: Digitaria, read-out: Growth inhibition rate (%) Crabgrass; for inhibition at 250 g/ha: 250 g/ha active ingredient, observed 19th to 28th day after application
Outline: as §1

[20] = tested on: wheat (Triticum spp.); test: Test Example 1: foliar treatment, upland pot test, wheat; settings: Triticum, read-out: Growth inhibition rate (%) Wheat; for inhibition at 31 g/ha: 31 g/ha active ingredient, observed 17th to 25th day after application
Outline: as §2

[21] = 63 g/ha active ingredient, observed 21st day after application
[22] = 500 g/ha active ingredient, observed 20th day after application

In the case of `COC(COc1c(S(C)(=O)=O)ccc(C(=O)c2cnn(C)c2O)c1C)OC` [Compound No. 1, 5-hydroxy-1-methylpyrazol-4-yl 3-(2,2-dimethoxyethoxy)-2-methyl-4-(methylsulfonyl)phenyl ketone], the inhibition at 31 g/ha [1] was 90%, the inhibition at 31 g/ha [2] was 98% and the inhibition at 31 g/ha [3] was 98%. For the same compound, the inhibition at 250 g/ha [4] was 100%, the inhibition at 31 g/ha [5] was 98% and the inhibition at 250 g/ha [6] was 40%. For the same compound, the inhibition at 31 g/ha [7] was 80%, the inhibition at 250 g/ha [8] was 100% and the inhibition at 250 g/ha [9] was 95%. It also gave an inhibition at 250 g/ha [10] of 30%, an inhibition at 31 g/ha [11] of 10% and an inhibition at 31 g/ha [12] of 100%. The inhibition at 250 g/ha [13] was 40%, the inhibition at 250 g/ha [14] was 100% and the inhibition at 31 g/ha [15] was 80%. The inhibition at 31 g/ha [16] was 98%, the inhibition at 250 g/ha [17] was 90% and the inhibition at 250 g/ha [18] was 0%. For the same compound, the inhibition at 250 g/ha [19] was 90% and the inhibition at 31 g/ha [20] was 30%.
With `Cc1c(C(=O)c2cnn(C)c2O)ccc(S(C)(=O)=O)c1C#N` [compound 171] the inhibition at 31 g/ha [1] was 60%, the inhibition at 31 g/ha [2] was 70% and the inhibition at 31 g/ha [3] was 70%. It also gave an inhibition at 250 g/ha [4] of 70%, an inhibition at 31 g/ha [5] of 80% and an inhibition at 250 g/ha [6] of 10%. For the same compound, the inhibition at 31 g/ha [7] was 70%, the inhibition at 250 g/ha [8] was 100% and the inhibition at 250 g/ha [9] was 40%. It also gave an inhibition at 250 g/ha [10] of 50%, an inhibition at 31 g/ha [11] of 0% and an inhibition at 31 g/ha [12] of 75%. It also gave an inhibition at 250 g/ha [13] of 0%, an inhibition at 250 g/ha [14] of 40% and an inhibition at 31 g/ha [15] of 40%. It also gave an inhibition at 31 g/ha [16] of 80%, an inhibition at 250 g/ha [17] of 10% and an inhibition at 250 g/ha [18] of 0%. It also gave an inhibition at 250 g/ha [19] of 80% and an inhibition at 31 g/ha [20] of 0%.
Work on `Cn1ncc(C(=O)c2ccc(S(C)(=O)=O)c(Cl)c2Cl)c1O` [compound 238] yielded an inhibition at 31 g/ha [1] of 0%, an inhibition at 31 g/ha [2] of 0% and an inhibition at 31 g/ha [3] of 50%. For the same compound, the inhibition at 250 g/ha [4] was 0%, the inhibition at 31 g/ha [5] was 50% and the inhibition at 250 g/ha [6] was 0%. It also gave an inhibition at 31 g/ha [7] of 0%, an inhibition at 250 g/ha [8] of 30% and an inhibition at 250 g/ha [9] of 0%. For the same compound, the inhibition at 250 g/ha [10] was 0%, the inhibition at 31 g/ha [11] was 0% and the inhibition at 31 g/ha [12] was 30%. It also gave an inhibition at 250 g/ha [13] of 0%, an inhibition at 250 g/ha [14] of 20% and an inhibition at 31 g/ha [15] of 0%. For the same compound, the inhibition at 31 g/ha [16] was 0%, the inhibition at 250 g/ha [17] was 0% and the inhibition at 250 g/ha [18] was 0%. For the same compound, the inhibition at 250 g/ha [19] was 20% and the inhibition at 31 g/ha [20] was 0%.
With `Cc1c(C(=O)c2cnn(C)c2O)ccc(S(C)(=O)=O)c1OC(F)F` [compound 146] the inhibition at 31 g/ha [1] was 30%, the inhibition at 31 g/ha [2] was 30% and the inhibition at 31 g/ha [3] was 60%. It also gave an inhibition at 250 g/ha [4] of 90%, an inhibition at 31 g/ha [5] of 80% and an inhibition at 250 g/ha [6] of 0%. It also gave an inhibition at 31 g/ha [7] of 40%, an inhibition at 250 g/ha [8] of 100% and an inhibition at 250 g/ha [9] of 40%. The inhibition at 250 g/ha [10] was 90%, the inhibition at 31 g/ha [11] was 0% and the inhibition at 31 g/ha [12] was 50%. The inhibition at 250 g/ha [13] was 0%, the inhibition at 250 g/ha [14] was 95% and the inhibition at 31 g/ha [15] was 20%. The inhibition at 31 g/ha [16] was 80%, the inhibition at 250 g/ha [17] was 70% and the inhibition at 250 g/ha [18] was 0%. It also gave an inhibition at 250 g/ha [19] of 100% and an inhibition at 31 g/ha [20] of 0%.
`Cn1ncc(C(=O)c2ccc(S(C)(=O)=O)c(S(C)(=O)=O)c2Cl)c1O` [compound 247] was tested, and the inhibition at 63 g/ha [1, 21] was 30%, the inhibition at 63 g/ha [2, 21] was 50% and the inhibition at 63 g/ha [3, 21] was 100%. For the same compound, the inhibition at 500 g/ha [4, 22] was 100%, the inhibition at 63 g/ha [5, 21] was 100% and the inhibition at 500 g/ha [6, 22] was 50%. The inhibition at 63 g/ha [7, 21] was 90%, the inhibition at 500 g/ha [8, 22] was 100% and the inhibition at 500 g/ha [9, 22] was 100%. It also gave an inhibition at 500 g/ha [10, 22] of 75%, an inhibition at 63 g/ha [11, 21] of 0% and an inhibition at 63 g/ha [12, 21] of 80%. The inhibition at 500 g/ha [13, 22] was 10%, the inhibition at 500 g/ha [14, 22] was 100% and the inhibition at 63 g/ha [15, 21] was 20%. For the same compound, the inhibition at 63 g/ha [16, 21] was 90%, the inhibition at 500 g/ha [17, 22] was 98% and the inhibition at 500 g/ha [18, 22] was 0%. For the same compound, the inhibition at 500 g/ha [19, 22] was 100% and the inhibition at 63 g/ha [20, 21] was 0%.
